Measured values taken from US9394264B2 (Receptos, Inc., priority 2009, dated 2016).
Structures can show the parent of a compound that is named as a salt. Where two headings read alike, the source gives them in different places.

Legend:
Format in all cases: cell-based
S1P2 = target: T1, S1P2 (Homo sapiens, UniProt O95136); test: Specificity over other S1P receptors: S1P2 CRE-bla CHOK1; details: S1P2 CRE-bla CHOK1, without Forskolin; read-out: S1P2 agonist value (EC50)
T1 construct: expressed in transfected cells; host or cells: CRE-bla CHOK1
Method: (§1) Cells were seeded into 384-well black wall/clear bottom plates at 10^4 cells/well/19.5 μl assay media (DMEM-phenol free, 0.5% charcoal/dextran stripped serum, 2 mM glutamine, 0.1 mM NEAA, 1 mM Na-Pyruvate, 25 mM Hepes) and incubated for 18 hrs at 37° C. in 5% CO2. Dose response curves (10-point) were generated in 10 mM Hepes, 0.1% Pluronic F127, in the presence of Forskolin. Cells were treated with 0.5 μl compound in the presence of 2 μM Forskolin for 4 hrs at 37° C. The FRET-based β-lactamase fluorescent substrate (LiveBLAzer™-FRET B/G Loading Kit CC4-AM; Invitrogen) was prepared according to manufacturer's directions, and incubated with cells for 2 hrs at room temperature. Plates were read at Ex:410/Em:458 and Ex:410/Em:522, and the response ratio determined. Data was analyzed by non-linear regression to determine the EC50 for inhibition of Forskolin induced cAMP.
(§2) To assess compound specificity on other S1P receptors the following cell lines were used: S1P2 CRE-bla CHOK1, S1P3-Gα15 NFAT-bla HEK293T (Invitrogen), S1P4-bla TANGO U2OS (Invitrogen), S1P5-bla TANGO U2OS (Invitrogen). The same assay set up for S1P1 was used but without Forskolin. S1P4 and S1P5 assays were performed in FreeStyle Expression medium (Invitrogen). S1P5 cells were incubated for 48 hrs in prior to treatment with compound.

S1P4 = target: T2, S1P4 (Homo sapiens, UniProt O95977); test: Specificity over other S1P receptors: S1P4-bla TANGO U2OS; details: without Forskolin, read-out: S1P4 agonist value (EC50)
T2 construct: Tango fusion (C); host or cells: U2OS (Tango, bla reporter)
T2 sequence (O95977 1-384): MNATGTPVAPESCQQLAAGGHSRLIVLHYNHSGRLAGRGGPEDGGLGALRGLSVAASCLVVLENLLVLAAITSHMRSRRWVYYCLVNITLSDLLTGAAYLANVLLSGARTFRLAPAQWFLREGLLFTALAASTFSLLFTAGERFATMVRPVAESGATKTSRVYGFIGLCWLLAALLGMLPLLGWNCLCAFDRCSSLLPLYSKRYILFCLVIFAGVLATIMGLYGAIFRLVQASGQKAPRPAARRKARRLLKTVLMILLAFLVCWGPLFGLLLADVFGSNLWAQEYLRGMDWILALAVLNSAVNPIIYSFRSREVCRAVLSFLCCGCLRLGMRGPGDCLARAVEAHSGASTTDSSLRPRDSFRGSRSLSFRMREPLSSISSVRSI
Method: as §1, §2

S1P1/EDG1 = S1P1/EDG1 (Homo sapiens, UniProt P21453); test: S1P1 CRE-bla CHOK1 reporter assay (inhibition of Forskolin induced cAMP); details: S1P1 CRE-bla CHOK1 cells, 2 μM Forskolin
Description: A mammalian expression plasmid containing S1P1/EDG1 cloned into pcDNA3.1 was purchased from Missouri S&T cDNA Resource Centre. The nucleotide and amino acid sequence of human S1P1/EDG1 are published in Hla and Maciag (J Biol Chem, 265(1990), 9308-9313). S1P1/pcDNA3.1 was transfected into the CRE-bla CHO K1 (Invitrogen) cell line, and stable single cell clones were selected using standard techniques. Expression of functional S1P1/EDG1 receptor was confirmed by cell surface FACS with a S1P1 antibody (R&D Systems, clone 218713) and S1P-mediated inhibition of Forskolin induced cAMP.
as §1

S1P5 = target: T3, S1P5 (Homo sapiens, UniProt Q9H228); test: Specificity over other S1P receptors: S1P5-bla TANGO U2OS; details: without Forskolin, read-out: S1P5 agonist value (EC50)
T3 construct: Tango fusion (C); host or cells: U2OS (Tango, bla reporter)
Method: as §1, §2

S1P3 = target: T4, S1P3 (Homo sapiens, UniProt Q99500); test: Specificity over other S1P receptors: S1P3-Gα15 NFAT-bla HEK293T; details: without Forskolin, read-out: S1P3 agonist value (EC50)
T4 construct: host or cells: NFAT-bla HEK293T
Method: as §1, §2

[1] = read-out: S1P1 agonist value (EC50)
[2] = agonist activity range, read-out: S1P1 ACTIVITY

T4 sequence (Q99500 whole entry): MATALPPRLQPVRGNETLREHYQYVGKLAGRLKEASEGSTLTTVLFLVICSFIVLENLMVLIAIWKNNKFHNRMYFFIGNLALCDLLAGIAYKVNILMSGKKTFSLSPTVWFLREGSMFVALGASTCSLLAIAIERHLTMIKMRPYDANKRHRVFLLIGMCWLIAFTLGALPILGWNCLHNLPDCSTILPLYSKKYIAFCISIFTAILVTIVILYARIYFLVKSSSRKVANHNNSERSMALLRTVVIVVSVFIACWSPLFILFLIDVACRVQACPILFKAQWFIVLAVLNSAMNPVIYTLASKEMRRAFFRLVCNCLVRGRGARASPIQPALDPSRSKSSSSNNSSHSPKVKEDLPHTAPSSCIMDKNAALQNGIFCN
T3 sequence (Q9H228 whole entry, the tested form may be a part): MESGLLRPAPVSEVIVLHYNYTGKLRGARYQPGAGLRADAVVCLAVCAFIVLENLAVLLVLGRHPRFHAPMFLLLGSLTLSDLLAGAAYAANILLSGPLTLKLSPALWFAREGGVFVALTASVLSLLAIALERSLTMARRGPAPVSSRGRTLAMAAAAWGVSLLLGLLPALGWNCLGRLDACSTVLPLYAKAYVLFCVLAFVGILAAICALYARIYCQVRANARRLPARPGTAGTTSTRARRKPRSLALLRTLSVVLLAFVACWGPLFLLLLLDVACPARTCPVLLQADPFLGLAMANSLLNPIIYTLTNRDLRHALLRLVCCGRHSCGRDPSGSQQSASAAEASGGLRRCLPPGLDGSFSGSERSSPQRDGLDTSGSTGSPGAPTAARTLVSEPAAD
Chain of S1P1/EDG1 (P21453 whole entry): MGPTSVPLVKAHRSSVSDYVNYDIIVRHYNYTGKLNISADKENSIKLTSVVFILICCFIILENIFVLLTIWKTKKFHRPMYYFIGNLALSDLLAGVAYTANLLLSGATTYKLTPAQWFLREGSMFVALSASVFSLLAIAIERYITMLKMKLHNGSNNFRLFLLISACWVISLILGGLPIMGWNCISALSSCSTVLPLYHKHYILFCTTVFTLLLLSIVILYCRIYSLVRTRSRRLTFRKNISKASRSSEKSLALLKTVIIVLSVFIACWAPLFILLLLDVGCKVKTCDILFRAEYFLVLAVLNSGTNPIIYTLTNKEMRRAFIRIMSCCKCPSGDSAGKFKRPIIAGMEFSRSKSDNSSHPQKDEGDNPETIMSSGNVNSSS
T1 sequence (O95136 whole entry, species assumed): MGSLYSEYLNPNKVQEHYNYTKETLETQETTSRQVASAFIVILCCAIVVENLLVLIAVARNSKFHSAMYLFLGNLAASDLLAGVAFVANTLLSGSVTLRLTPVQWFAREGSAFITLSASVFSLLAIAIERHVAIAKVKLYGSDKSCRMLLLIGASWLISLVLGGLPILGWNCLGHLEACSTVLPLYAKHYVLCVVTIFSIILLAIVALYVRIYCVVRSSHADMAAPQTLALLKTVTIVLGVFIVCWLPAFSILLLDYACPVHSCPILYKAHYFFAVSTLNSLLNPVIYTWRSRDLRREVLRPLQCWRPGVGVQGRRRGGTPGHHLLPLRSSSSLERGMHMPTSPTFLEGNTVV

Structure (SMILES)	EC50 (S1P2) [nM]	EC50 (S1P4) [nM]	EC50 (S1P1/EDG1; [1]) [nM]	EC50 (S1P1/EDG1; [2]) [nM]	EC50 (S1P5) [nM]	EC50 (S1P3) [nM]
CC(C)Oc1ccc(-c2nc(-c3cccc4c3CCC[C@@H]4NC(=O)N3CC(O)C3)no2)cc1C#N [Compound 8, (S)-N-(5-(5-(3-cyano-4-isopropoxyphenyl)-1,2,4-oxadiazol-3-yl)-1,2,3,4-tetrahydronaphthalen-1-yl)-3-hydroxyazetidine-1-carboxamide]	> 10000	> 10000	0.143	0.05 to 0.5	109	> 10000
CC(C)Oc1ccc(-c2nc(-c3cccc4c3CCC[C@H]4NC(=O)N3CC[C@H](O)C3)no2)cc1C#N [Compound 13]	> 10000	> 10000	0.1	0.05 to 0.5	77	> 10000
CC(C)Oc1ccc(-c2nc(-c3cccc4c3CCC[C@@H]4NS(C)(=O)=O)no2)cc1C#N [Compound 29, (S)-N-(5-(5-(3-cyano-4-isopropoxyphenyl)-1,2,4-oxadiazol-3-yl)-1,2,3,4-tetrahydronaphthalen-1-yl)methanesulfonamide]	> 10000	> 10000	0.065	0.05 to 0.5	37.8	> 10000
COCCS(=O)(=O)N[C@H]1CCCc2c(-c3noc(-c4ccc(OC(C)C)c(C#N)c4)n3)cccc21 [Compound 33, (S)-N-(5-(5-(3-cyano-4-isopropoxyphenyl)-1,2,4-oxadiazol-3-yl)-1,2,3,4-tetrahydronaphthalen-1-yl)-2-methoxyethanesulfonamide]	> 10000	617	0.192	0.05 to 0.5	260	> 10000
CC(C)Oc1ccc(-c2nc(-c3cccc4c3CCC[C@H]4NS(=O)(=O)CCO)no2)cc1C#N [Compound 37, (R)-N-(5-(5-(3-cyano-4-isopropoxyphenyl)-1,2,4-oxadiazol-3-yl)-1,2,3,4-tetrahydronaphthalen-1-yl)-2-hydroxyethanesulfonamide]	1440	879	0.024	< 0.05	3.5	> 10000
CC(C)Oc1ccc(-c2nc(-c3cccc4c3CCC[C@@H]4NCCS(C)(=O)=O)no2)cc1C#N [Compound 49, (S)-2-isopropoxy-5-(3-(5-((42-(methylsulfonyl)ethyl)amino)-5,6,7,8-tetrahydronaphthalen-1-yl)-1,2,4-oxadiazol-5-yl)benzonitrile]	> 10000	> 10000	0.104	0.05 to 0.5	94.6	> 10000
CC(C)Oc1ccc(-c2nc(-c3cccc4c3CCC[C@H]4NCC(=O)N3CCCC3)no2)cc1C#N [Compound 54, (R)-2-isopropoxy-5-(3-(5-((2-oxo-2-(pyrrolidin-1-yl)ethyl)amino)-5,6,7,8-tetrahydronaphthalen-1-yl)-1,2,4-oxadiazol-5-yl)benzonitrile]	–	–	–	0.5 to 5	–	–
CC(C)Oc1ccc(-c2nc(-c3cccc4c3CCC[C@@H]4NCC(=O)N3CCCC3)no2)cc1C#N [Compound 55, (S)-2-isopropoxy-5-(3-(5-((2-oxo-2-(pyrrolidin-1-yl)ethyl)amino)-5,6,7,8-tetrahydronaphthalen-1-yl)-1,2,4-oxadiazol-5-yl)benzonitrile]	–	–	–	0.05 to 0.5	–	–
CC(C)Oc1ccc(-c2ncc(-c3cccc4c3CCC4O)o2)cc1C#N (centres unmarked) [Compound 56, 5-(5-(1-hydroxy-2,3-dihydro-1H-inden-4-yl)oxazol-2-yl)-2-isopropoxybenzonitrile]	–	–	–	0.5 to 5	–	–
CC(C)Oc1ccc(-c2ncc(-c3cccc4c3CCC4NCCO)o2)cc1C#N (centres unmarked) [Compound 57, 5-(5-(1-(2-hydroxyethylamino)-2,3-dihydro-1H-inden-4-yl)oxazol-2-yl)-2-isopropoxybenzonitrile]	–	–	–	0.5 to 5	–	–
CC(C)Oc1ccc(-c2ncc(-c3cccc4c3CCC4N[C@H](C)CO)o2)cc1C#N (stereo partly drawn) [Compound 58, 5-(5-(1-((R)-1-hydroxypropan-2-ylamino)-2,3-dihydro-1H-inden-4-yl)oxazol-2-yl)-2-isopropoxybenzonitrile]	–	–	–	> 5	–	–
CCOc1ccc(Cc2nc(-c3cccc4c3CCC4O)no2)cc1OCC (centres unmarked) [Compound 60, 4-(5-(3,4-diethoxybenzyl)-1,2,4-oxadiazol-3-yl)-2,3-dihydro-1H-inden-1-ol]	–	–	–	> 5	–	–
CCOc1ccc(Cc2nc(-c3cccc4c3CCC4NCCO)no2)cc1OCC (centres unmarked) [Compound 61, 2-((4-(5-(3,4-diethoxybenzyl)-1,2,4-oxadiazol-3-yl)-2,3-dihydro-1H-inden-1-yl)amino)ethanol]	–	–	–	> 5	–	–
CCOc1ccc(Cc2nc(-c3cccc4c3CCC4N[C@H](C)CO)no2)cc1OCC (some centres unmarked) [Compound 62]	–	–	–	> 5	–	–
CCOc1ccc(Cc2nc(-c3cccc4c3CCC4NCCS(C)(=O)=O)no2)cc1OCC (centres unmarked) [Compound 63, 4-(5-(3,4-diethoxybenzyl)-1,2,4-oxadiazol-3-yl)-N-(2-(methylsulfonyl)ethyl)-2,3-dihydro-1H-inden-1-amine]	–	–	–	> 5	–	–
CCOc1ccc(Cc2nc(-c3cccc4c3CCC4NCCS(=O)(=O)NC)no2)cc1OCC (centres unmarked) [Compound 64, 2-((4-(5-(3,4-diethoxybenzyl)-1,2,4-oxadiazol-3-yl)-2,3-dihydro-1H-inden-1-yl)amino)-N-methylethanesulfonamide]	–	–	–	> 5	–	–
CCOc1ccc(Cc2nc(-c3cccc4c3CC[C@H]4N)no2)cc1OCC [Compound 65, (R)-4-(5-(3,4-diethoxybenzyl)-1,2,4-oxadiazol-3-yl)-2,3-dihydro-1H-inden-1-amine hydrochloride]	–	–	–	> 5	–	–
CCOc1ccc(Cc2nc(-c3cccc4c3CC[C@@H]4NCC(=O)N(C)C)no2)cc1OCC [Compound 66, (S)-2-((4-(5-(3,4-diethoxybenzyl)-1,2,4-oxadiazol-3-yl)-2,3-dihydro-1H-inden-1-yl)amino)-N,N-dimethylacetamide]	–	–	–	> 5	–	–
OCCN[C@@H]1CCc2c(-c3noc(-c4cc(-c5ccccc5)c(C(F)(F)F)s4)n3)cccc21 [Compound 67, (R)-2-(4-(5-(4-phenyl-5-(trifluoromethyl)thiophen-2-yl)-1,2,4-oxadiazol-3-yl)-2,3-dihydro-1H-inden-1-ylamino)ethanol]	–	–	–	> 5	–	–
CC(C)Oc1ccc(-c2nc(-c3ccc4[nH]ccc4c3)no2)cc1C#N [Compound 68, 5-(3-(1H-indol-5-yl)-1,2,4-oxadiazol-5-yl)-2-isopropoxybenzonitrile]	–	–	–	0.5 to 5	–	–
CC(C)Oc1ccc(-c2nc(-c3ccc4occc4c3)no2)cc1C#N [Compound 69, 5-(3-(benzofuran-5-yl)-1,2,4-oxadiazol-5-yl)-2-isopropoxybenzonitrile]	–	–	–	0.5 to 5	–	–
Cc1cnccc1-c1noc(-c2ccc(OC(C)C)c(C#N)c2)n1 [Compound 70, 2-isopropoxy-5-(3-(3-methylpyridin-4-yl)-1,2,4-oxadiazol-5-yl)benzonitrile]	–	–	–	< 0.05	–	–
CC(C)Oc1ccc(-c2nc(-c3ccnc(CO)c3)no2)cc1C#N [Compound 71, 5-(3-(2-(hydroxymethyl)pyridin-4-yl)-1,2,4-oxadiazol-5-yl)-2-isopropoxy-benzonitrile]	–	–	–	0.05 to 0.5	–	–
